23 compounds from ChEMBL document CHEMBL1150021, “Alkyl ether analogs of the FK-506 related, immunosuppressive macrolide L-683,590 (ascomycin)” (Bioorg Med Chem Lett, 1994) can be followed below.

What is called EC50 is the concentration needed to bring the measured effect to its halfway point. One may read the IC50 as the midpoint of a concentration-inhibition curve. A high value points to weaker potency.

One assay deals with Peptidyl-prolyl cis-trans isomerase FKBP1A (Homo sapiens, UniProt P62942). The assay is described as follows: Ability to bind the major cystolic receptor FK506 binding protein 12 by using competitive binding assay.
Chain of Peptidyl-prolyl cis-trans isomerase FKBP1A (P62942 whole entry): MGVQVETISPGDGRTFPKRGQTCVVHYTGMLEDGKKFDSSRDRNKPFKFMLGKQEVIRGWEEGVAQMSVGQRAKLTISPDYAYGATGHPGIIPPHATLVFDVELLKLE
Details: not given
In the case of `CC[C@@H]1/C=C(\C)C[C@H](C)C[C@H](OC)[C@H]2O[C@@](O)(C(=O)C(=O)N3CCCC[C@H]3C(=O)O[C@H](/C(C)=C/[C@@H]3CC[C@@H](OC/C=C/c4ccc(Br)cc4)[C@H](OC)C3)[C@H](C)[C@@H](O)CC1=O)[C@H](C)C[C@@H]2OC`, the midpoint of the response, the EC50, lay at 23 nM. That is a double-digit nanomolar value.

Consider `CC[C@@H]1/C=C(\C)C[C@H](C)C[C@H](OC)[C@H]2O[C@@](O)(C(=O)C(=O)N3CCCC[C@H]3C(=O)O[C@H](/C(C)=C/[C@@H]3CC[C@@H](OC/C=C/c4ccc(O)cc4)[C@H](OC)C3)[C@H](C)[C@@H](O)CC1=O)[C@H](C)C[C@@H]2OC`, for which the EC50 was found to be 20.5 nM.

Consider `CC[C@@H]1/C=C(\C)C[C@H](C)C[C@H](OC)[C@H]2O[C@@](O)(C(=O)C(=O)N3CCCC[C@H]3C(=O)O[C@H](/C(C)=C/[C@@H]3CC[C@@H](OC/C=C/c4cccc([N+](=O)[O-])c4)[C@H](OC)C3)[C@H](C)[C@@H](O)CC1=O)[C@H](C)C[C@@H]2OC`, for which the midpoint of the response, the EC50, lay at 34.3 nM.

For the compound `CC[C@@H]1/C=C(\C)C[C@H](C)C[C@H](OC)[C@H]2O[C@@](O)(C(=O)C(=O)N3CCCC[C@H]3C(=O)O[C@H](/C(C)=C/[C@@H]3CC[C@@H](O)[C@H](OC)C3)[C@H](C)[C@@H](O)CC1=O)[C@H](C)C[C@@H]2OC` [ASCOMYCIN], the EC50 came out at 1.6 nM.

The subject of a further assay is T-cell. In words: In vitro evaluation for immunosuppressive activity against proliferation of antigen stimulated murine splenic T cells. The following applies: Mus musculus. The format is functional, cell-based.
Regarding `CC[C@@H]1/C=C(\C)C[C@H](C)C[C@H](OC)[C@H]2O[C@@](O)(C(=O)C(=O)N3CCCC[C@H]3C(=O)O[C@H](/C(C)=C/[C@@H]3CC[C@@H](OCc4ccco4)[C@H](OC)C3)[C@H](C)[C@@H](O)CC1=O)[C@H](C)C[C@@H]2OC`, the IC50 is 13.9 nM. That is a double-digit nanomolar value.

For `C/C=C(C)/C=C/CO[C@@H]1CC[C@@H](/C=C(\C)[C@H]2OC(=O)[C@@H]3CCCCN3C(=O)C(=O)[C@]3(O)O[C@H]([C@@H](OC)C[C@@H](C)C/C(C)=C/[C@@H](CC)C(=O)C[C@H](O)[C@H]2C)[C@@H](OC)C[C@H]3C)C[C@H]1OC`, the midpoint of inhibition, the IC50, lay at 6.9 nM.

`CC[C@@H]1/C=C(\C)C[C@H](C)C[C@H](OC)[C@H]2O[C@@](O)(C(=O)C(=O)N3CCCC[C@H]3C(=O)O[C@H](/C(C)=C/[C@@H]3CC[C@@H](OC/C=C/c4cccc(F)c4)[C@H](OC)C3)[C@H](C)[C@@H](O)CC1=O)[C@H](C)C[C@@H]2OC` displayed an IC50 of 2.5 nM.

`CC[C@@H]1/C=C(\C)C[C@H](C)C[C@H](OC)[C@H]2O[C@@](O)(C(=O)C(=O)N3CCCC[C@H]3C(=O)O[C@H](/C(C)=C/[C@@H]3CC[C@@H](OC/C=C/c4ccc(Br)cc4)[C@H](OC)C3)[C@H](C)[C@@H](O)CC1=O)[C@H](C)C[C@@H]2OC` displayed an IC50 of 14.5 nM.

`CC[C@@H]1/C=C(\C)C[C@H](C)C[C@H](OC)[C@H]2O[C@@](O)(C(=O)C(=O)N3CCCC[C@H]3C(=O)O[C@H](/C(C)=C/[C@@H]3CC[C@@H](OCCCc4ccccc4)[C@H](OC)C3)[C@H](C)[C@@H](O)CC1=O)[C@H](C)C[C@@H]2OC`: inhibition was half-maximal at 3.5 nM (IC50). Compared with the last compound, the IC50 is about 4.1-fold lower.

For the compound `CC[C@@H]1/C=C(\C)C[C@H](C)C[C@H](OC)[C@H]2O[C@@](O)(C(=O)C(=O)N3CCCC[C@H]3C(=O)O[C@H](/C(C)=C/[C@@H]3CC[C@@H](OC/C=C/c4ccc(OC)cc4)[C@H](OC)C3)[C@H](C)[C@@H](O)CC1=O)[C@H](C)C[C@@H]2OC`, the IC50 is 3.8 nM.

Regarding `CC[C@@H]1/C=C(\C)C[C@H](C)C[C@H](OC)[C@H]2O[C@@](O)(C(=O)C(=O)N3CCCC[C@H]3C(=O)O[C@H](/C(C)=C/[C@@H]3CC[C@@H](OC/C=C/c4cc(F)cc(F)c4)[C@H](OC)C3)[C@H](C)[C@@H](O)CC1=O)[C@H](C)C[C@@H]2OC`, the 50% inhibitory concentration (IC50) was 3.9 nM. This IC50 and that of the compound before are within 1.5-fold of each other.

In the case of `CC[C@@H]1/C=C(\C)C[C@H](C)C[C@H](OC)[C@H]2O[C@@](O)(C(=O)C(=O)N3CCCC[C@H]3C(=O)O[C@H](/C(C)=C/[C@@H]3CC[C@@H](OCc4ccccc4)[C@H](OC)C3)[C@H](C)[C@@H](O)CC1=O)[C@H](C)C[C@@H]2OC`, the half-inhibitory concentration (IC50) came to 3 nM.

In turn, `CC#CCO[C@@H]1CC[C@@H](/C=C(\C)[C@H]2OC(=O)[C@@H]3CCCCN3C(=O)C(=O)[C@]3(O)O[C@H]([C@@H](OC)C[C@@H](C)C/C(C)=C/[C@@H](CC)C(=O)C[C@H](O)[C@H]2C)[C@@H](OC)C[C@H]3C)C[C@H]1OC` returned an IC50 of 6.1 nM.

For the compound `CC[C@@H]1/C=C(\C)C[C@H](C)C[C@H](OC)[C@H]2O[C@@](O)(C(=O)C(=O)N3CCCC[C@H]3C(=O)O[C@H](/C(C)=C/[C@@H]3CC[C@@H](OCc4cccs4)[C@H](OC)C3)[C@H](C)[C@@H](O)CC1=O)[C@H](C)C[C@@H]2OC`, inhibition was half-maximal at 7.1 nM (IC50).

The compound `CC[C@@H]1/C=C(\C)C[C@H](C)C[C@H](OC)[C@H]2O[C@@](O)(C(=O)C(=O)N3CCCC[C@H]3C(=O)O[C@H](/C(C)=C/[C@@H]3CC[C@@H](OC(C)C)[C@H](OC)C3)[C@H](C)[C@@H](O)CC1=O)[C@H](C)C[C@@H]2OC` registered a concentration for half-maximal inhibition (IC50) of 12.5 nM.

The compound `CC[C@@H]1/C=C(\C)C[C@H](C)C[C@H](OC)[C@H]2O[C@@](O)(C(=O)C(=O)N3CCCC[C@H]3C(=O)O[C@H](/C(C)=C/[C@@H]3CC[C@@H](OC(C)c4ccccc4)[C@H](OC)C3)[C@H](C)[C@@H](O)CC1=O)[C@H](C)C[C@@H]2OC` (stereo not given in full) came in with an IC50 of 11.3 nM.

Take `CC[C@@H]1/C=C(\C)C[C@H](C)C[C@H](OC)[C@H]2O[C@@](O)(C(=O)C(=O)N3CCCC[C@H]3C(=O)O[C@H](/C(C)=C/[C@@H]3CC[C@@H](OC/C=C/C4CCCCC4)[C@H](OC)C3)[C@H](C)[C@@H](O)CC1=O)[C@H](C)C[C@@H]2OC`: the half-inhibitory concentration (IC50) is 5.5 nM. Compared with the last compound, the IC50 is about 2.1-fold lower.

In turn, `CC[C@@H]1/C=C(\C)C[C@H](C)C[C@H](OC)[C@H]2O[C@@](O)(C(=O)C(=O)N3CCCC[C@H]3C(=O)O[C@H](/C(C)=C/[C@@H]3CC[C@@H](OC/C=C/c4cccc([N+](=O)[O-])c4)[C@H](OC)C3)[C@H](C)[C@@H](O)CC1=O)[C@H](C)C[C@@H]2OC` showed an IC50 of 1.9 nM.

On to `CC[C@@H]1/C=C(\C)C[C@H](C)C[C@H](OC)[C@H]2O[C@@](O)(C(=O)C(=O)N3CCCC[C@H]3C(=O)O[C@H](/C(C)=C/[C@@H]3CC[C@@H](OC/C=C/c4cccc(O)c4)[C@H](OC)C3)[C@H](C)[C@@H](O)CC1=O)[C@H](C)C[C@@H]2OC`, for which the 50% inhibitory concentration (IC50) was determined as 0.8 nM.

On to `CC[C@@H]1/C=C(\C)C[C@H](C)C[C@H](OC)[C@H]2O[C@@](O)(C(=O)C(=O)N3CCCC[C@H]3C(=O)O[C@H](/C(C)=C/[C@@H]3CC[C@@H](OCC#Cc4ccccc4)[C@H](OC)C3)[C@H](C)[C@@H](O)CC1=O)[C@H](C)C[C@@H]2OC`, for which the IC50 was 2.7 nM.

The compound `CC[C@@H]1/C=C(\C)C[C@H](C)C[C@H](OC)[C@H]2O[C@@](O)(C(=O)C(=O)N3CCCC[C@H]3C(=O)O[C@H](/C(C)=C/[C@@H]3CC[C@@H](OC/C=C/C(C)(C)C)[C@H](OC)C3)[C@H](C)[C@@H](O)CC1=O)[C@H](C)C[C@@H]2OC` displayed a half-inhibitory concentration (IC50) of 14.2 nM.

On to `CC[C@@H]1/C=C(\C)C[C@H](C)C[C@H](OC)[C@H]2O[C@@](O)(C(=O)C(=O)N3CCCC[C@H]3C(=O)O[C@H](/C(C)=C/[C@@H]3CC[C@@H](OC/C(C)=C/c4ccccc4)[C@H](OC)C3)[C@H](C)[C@@H](O)CC1=O)[C@H](C)C[C@@H]2OC`, for which the IC50 is 5.5 nM.

In the case of `CC[C@@H]1/C=C(\C)C[C@H](C)C[C@H](OC)[C@H]2O[C@@](O)(C(=O)C(=O)N3CCCC[C@H]3C(=O)O[C@H](/C(C)=C/[C@@H]3CC[C@@H](OC/C=C/c4ccc(F)cc4)[C@H](OC)C3)[C@H](C)[C@@H](O)CC1=O)[C@H](C)C[C@@H]2OC`, inhibition was half-maximal at 5.5 nM (IC50).

`CC[C@@H]1/C=C(\C)C[C@H](C)C[C@H](OC)[C@H]2O[C@@](O)(C(=O)C(=O)N3CCCC[C@H]3C(=O)O[C@H](/C(C)=C/[C@@H]3CC[C@@H](OC/C=C/c4ccc(Cl)cc4)[C@H](OC)C3)[C@H](C)[C@@H](O)CC1=O)[C@H](C)C[C@@H]2OC` displayed a half-maximal inhibitory concentration (IC50) of 15.8 nM.

Regarding `C=CC[C@@H]1/C=C(\C)C[C@H](C)C[C@H](OC)[C@H]2O[C@@](O)(C(=O)C(=O)N3CCCC[C@H]3C(=O)O[C@H](/C(C)=C/[C@@H]3CC[C@@H](O)[C@H](OC)C3)[C@H](C)[C@@H](O)CC1=O)[C@H](C)C[C@@H]2OC` [TACROLIMUS ANHYDROUS], the IC50 came out at 0.29 nM. Compared with the last compound, the IC50 is about 54-fold lower.
